# Experimental data reported in patent US9808470B2, “Estrogenic components for use in the treatment of neurological disorders” (UNIVERSITE DE LIEGE, priority 2012, dated 2017).
# What was measured:
# Type in all cases: in vivo
# [1] = system: intact cells in hippocampus and cortex; test: Ex.4 therapeutic HIE rat model: intact cell counting
# Protocol: Paraformaldehyde-fixed paraffin embedded samples of the removed brains were coronally sectioned at the same level of the hippocampus region in accordance to the Paxinos rat brain atlas (Paxinos and Watson 2007. In: The rat brain in stereotaxic coordinates, 6th edition). Thickness of sections was 5 μm. Hematoxylin-eosin staining was performed. Briefly, sections were deparaffinized in xylene and rehydrated in graded ethanol concentrations before staining. Slides were stained with hematoxylin, rinsed for a few seconds in water, then placed in 1% eosin and washed, dehydrated, and coverslipped.
# Intact cell counting was performed on hematoxylin-eosin-stained sections of the rat pups brains at magnification 400× in 3 fields of the respective brain area. Countings were performed in cortex and hippocampus (regions: dentate gyrus (DG), subgranular zone (SGZ), cornu ammonis (CA1, CA2/CA3)). The sections were analyzed with the aid of a microscope (Olympus BX51, Olympus, Tokyo, Japan), an image scanner (DotSlide Digital Virtual Microscopy, Olympus, Germany) and ImageJ software (NIH, US).
# Intact cells are uninjured. Injured cells are characterized by a pale eosinophilic staining along with non-uniform nuclear densities-shrunken, condensed, or pale and enlarged.
# (§1) To study the therapeutic effect of estetrol, newborn rat pups were assigned to one of the following 6 groups at postnatal day 7: sham group (n=29), vehicle group (n=20), 1 mg/kg E4 group (n=16), 5 mg/kg E4 group (n=19), 10 mg/kg day E4 (n=17) and 50 mg/kg day E4 group (n=15). At postnatal day 7 animals were anesthetized with isoflurane (induction, 3.0%; maintenance, 1.5%), and the rat pups from vehicle and E4 groups passed through surgery encompassing left common carotid artery double ligation and cut. After surgery, the pups were returned to their dams and allowed to recover for 1 hour. The pups were then placed in a humidified hypoxic in vivo cabinet (CoyLab). Hypoxia was produced by the inhalation of 11%-8% of oxygen balanced by nitrogen at decreased concentration of oxygen for 20 minutes, followed by inhalation of 8% oxygen and 92% nitrogen at constant concentration for 35 minutes. All the manipulations were performed at 37° C.
# Upon retrieval from the hypoxia chamber the rat pups were injected intraperitoneally either by vehicle (vehicle group) or by E4 (1 mg/kg, 5 mg/kg, 10 mg/kg or 50 mg/kg) in accordance to the group assignment. The animals from the sham group went through similar procedures but proceeded neither left common carotid artery ligation and cut followed by hypoxia nor vehicle or estetrol administration. Rat pups recovered with their dams until being sacrificed at postnatal day 14.
# [2] = Ex.4 therapeutic HIE rat model: rectal temperature; details: E4 1, 5, 10, 50 mg/kg single ip dose after HI at PND7; 0, 2, 4 h after hypoxia
# Protocol: The rectal temperature of the rat pups was measured with a multipurpose thermometer (BAT-10R, Physitemp Instruments Inc., Clifton, N.J., US) along with a rectal probe (RET-4, BioMedical Instruments, Zollnitz, Germany) at 0, 2, and 4 hours after exposure to hypoxic insult. To keep the variability of the temperature low, measurements of rectal temperature were made in a 25° C. room 15 min after removal of the pups from the nest (except the 1st post-hypoxic measurement which was done immediately). It has been shown that the rectal temperature corresponds very well to the brain core temperature (Thoresen et al. 1996. Arch Dis Child Fetal Neonatal 74: F3-F9, Yager et al. 1993. Pediatr Res 34: 525-529).
# as §1, with “Hypoxia was produced by the inhalation of 11%-8% of oxygen balanced by nitrogen at decreased concentration of oxygen for 20 minutes, followed by inhalation of 8% oxygen and 92% nitrogen at constant concentration for 35 minutes. All the manipulations were performed at 37° C.” left out
# [3] = Ex.8 therapeutic HIE rat model (E4 alone or combinations): rectal temperature; details: vs sham
# Protocol: All the compounds used for in vivo studies were dissolved in absolute Ethanol (ETOH) and further diluted in saline solution at a final concentration of ETOH 10%. An equal volume (5 μ1/g) of the solution was injected intraperitoneally (ip) into the pups from study groups. Rat pups from the vehicle group were ip injected a saline solution containing 10% ETOH. Rat pups from the Sham group were not injected at all.
# To study the therapeutic effect of estetrol, newborn rat pups were assigned to one of the following 14 groups at postnatal day 7 (FIG. 23(B)): Sham group (n=12), Vehicle (n=15), 5 mg/kg/day E4 (n=11), 10 mg/kg/day E4 (n=11), 5 mg/kg/day E4+1.6 mg/kg/day PROG (n=11), 10 mg/kg/day E4+1.6 mg/kg/day PROG (n=11), 5 mg/kg/day E4+16 mg/kg/day PROG (n=11), 10 mg/kg/day E4+16 mg/kg/day PROG (n=13), 5 mg/kg/day E4+136 ng//kg/day E2 (n=11), 10 mg/kg/day E4+136 ng/kg/day E2 (n=11), 5 mg/kg/day E4+1.6 mg/kg/day PROG+136 ng/kg/day E2 (n=12), 10 mg/kg/day E4+1.6 mg/kg/day PROG+136 ng/kg/day E2 (n=11), 5 mg/kg/day E4+16 mg/kg/day PROG+136 ng/kg/day E2 (n=11), 10 mg/kg/day E4+16 mg/kg/day PROG+136 ng/kg/day (n=12) groups. […]
# The rectal temperature of the rat pups was measured with a multipurpose thermometer (BAT-10R, Physitemp Instruments Inc., Clifton, N.J., US) along with a rectal probe (RET-4, BioMedical Instruments, Zollnitz, Germany) at 0, 2, and 4 hours after exposure to hypoxic insult. […]
structure (smiles),measurement,setting,value
"C[C@]12CC[C@@H]3c4ccc(O)cc4CC[C@H]3[C@@H]1[C@@H](O)[C@@H](O)[C@@H]2O [E4, 1,3,5(10)-estratrien-3,15α,16α,17β-tetrol]",number of intact cells per visual field,"[1]; 1 mg/kg E4 single ip dose after HI, CA1",51.5±2.5
same,number of intact cells per visual field,"[1]; 1 mg/kg E4 single ip dose after HI, CA2/CA3",33.9±4.306
same,number of intact cells per visual field,"[1]; 1 mg/kg E4 single ip dose after HI, cortex",42.4±4.865
same,number of intact cells per visual field,"[1]; 5 mg/kg E4 single ip dose after HI, CA1",45.3±2.989
same,number of intact cells per visual field,"[1]; 5 mg/kg E4 single ip dose after HI, CA2/CA3",33.8±4.704
same,number of intact cells per visual field,"[1]; 5 mg/kg E4 single ip dose after HI, cortex",57.1±7.012
same,number of intact cells per visual field,"[1]; 10 mg/kg E4 single ip dose after HI, CA1",46.0±3.19
same,number of intact cells per visual field,"[1]; 10 mg/kg E4 single ip dose after HI, CA2/CA3",35.2±3.169
same,number of intact cells per visual field,"[1]; 10 mg/kg E4 single ip dose after HI, cortex",56.9±5.958
same,number of intact cells per visual field,"[1]; 50 mg/kg E4 single ip dose after HI, CA1",46.6±5.336
same,number of intact cells per visual field,"[1]; 50 mg/kg E4 single ip dose after HI, CA2/CA3",30.5±2.527
same,number of intact cells per visual field,"[1]; 50 mg/kg E4 single ip dose after HI, cortex",54.5±3.403
same,rectal temperature,[2],did not affect the body temperature
same,rectal temperature,"[3]; 5 mg/kg/day E4, 4 h after HI, E4+E2 and E4+16 mg/kg/day PROG+E2",significantly higher rectal temperature
same,rectal temperature,"[3]; 10 mg/kg/day E4, 4 h after HI, E4+E2 and E4+16 mg/kg/day PROG",significant increase of the rectal temperature
